This is an account of results in patent publication US6710048B2, “Pyrazine derivatives as modulators of tyrosine kinases” (Ortho-McNeil Pharmaceutical, Inc., priority 2000, dated 2004).

As usually defined, the pIC50 is the IC50 on a negative log10 scale, so that one unit is a factor of ten.

pIC50: −log10 of the molar value. Some results are limits rather than exact numbers.

T1 sequence (P06493 whole entry): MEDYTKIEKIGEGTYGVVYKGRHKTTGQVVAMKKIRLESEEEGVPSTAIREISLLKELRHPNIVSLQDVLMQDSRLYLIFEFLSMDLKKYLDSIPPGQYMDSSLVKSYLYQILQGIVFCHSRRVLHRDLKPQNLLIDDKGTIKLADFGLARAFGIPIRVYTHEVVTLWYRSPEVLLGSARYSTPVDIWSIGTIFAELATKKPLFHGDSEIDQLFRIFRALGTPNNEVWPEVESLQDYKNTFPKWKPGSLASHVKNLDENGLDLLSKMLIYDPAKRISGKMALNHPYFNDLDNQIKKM
T1 sequence (P14635 whole entry partner): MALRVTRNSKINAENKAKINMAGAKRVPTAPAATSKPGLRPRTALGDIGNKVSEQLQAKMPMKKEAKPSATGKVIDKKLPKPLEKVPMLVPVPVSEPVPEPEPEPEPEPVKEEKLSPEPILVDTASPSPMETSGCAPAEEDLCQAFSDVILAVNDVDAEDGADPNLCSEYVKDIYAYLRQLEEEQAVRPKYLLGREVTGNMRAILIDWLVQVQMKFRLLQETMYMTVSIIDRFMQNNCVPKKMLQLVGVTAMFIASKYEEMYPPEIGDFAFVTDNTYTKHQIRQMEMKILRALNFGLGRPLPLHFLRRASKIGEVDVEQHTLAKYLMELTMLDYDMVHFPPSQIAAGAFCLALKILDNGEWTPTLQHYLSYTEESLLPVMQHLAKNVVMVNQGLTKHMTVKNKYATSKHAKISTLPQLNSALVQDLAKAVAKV

The first assay addresses T1, CDK1 (cyclin dependent kinase 1) / cyclin B (Homo sapiens, UniProt P06493).
T1 construct: purchased New England Biolabs 6020; host or cells: insect cells
In words: CDK1 kinase assay. It counts as biochemical. The note with it: Table 4 kinase selectivity; 10 = approximate value; read-out: IC50, Assay 2 CDK1.
With `O=C(NCCCO)c1cncc(-c2cncc(Nc3cccc(Cl)c3)n2)c1` [Cmd 39], the pIC50 is 4.46.
The same measure, in the same setting: then `Clc1cccc(Nc2cncc(-c3cncc(NCCCc4cccnc4)c3)n2)c1` [Cmd 72], with under 4.00.
On the same count and under the same terms, then `Clc1cccc(Nc2cncc(-c3cncc(NCCCn4cncn4)c3)n2)c1` [Cmd 76], with under 4.00.
For the molecule `OCCCCNc1cncc(-c2cncc(Nc3cccc(Cl)c3)n2)c1` [Cmd 32], the pIC50 was under 4.00.
`OCCCNc1cncc(-c2cncc(Nc3cccc(Cl)c3)n2)c1` [Cmd 4]: the pIC50 is under 5.00.
Still for that read-out and setting: then `Clc1cccc(Nc2cncc(-c3cncc(NCCCc4ccncc4)c3)n2)c1` [Cmd 71], with under 4.00.
On to `Clc1cccc(Nc2cncc(-c3cncc(NCCCn4cccn4)c3)n2)c1` [Cmd 75], for which the pIC50 was under 4.00.
For `Clc1cccc(Nc2cncc(-c3cncc(NCCCN4CCCCC4)c3)n2)c1` [Cmd 73], the pIC50 was 5.21.
As to `CN(C)CCCNc1cncc(-c2cncc(Nc3cccc(Cl)c3)n2)c1` [Cmd 35], the pIC50 is under 5.00.
The same measure, in the same setting: then `CN(C)CCNc1cncc(-c2cncc(Nc3cccc(Cl)c3)n2)c1` [Cmd 33, N′-[5-[6-[(3-chlorophenyl)amino]pyrazinyl]-3-pyridinyl]-N^2,N^2-dimethyl-1,2-ethanediamine], with under 5.00.

The same assay, now with this note: Tables 1-3; >10 or >100 = no 50% inhibition at highest dose tested; read-out: CDK IC50.
As to `O=C(NCCCO)c1cncc(-c2cncc(Nc3cccc(Cl)c3)n2)c1` [Cmd 39], the pIC50 is 4.46.
On the same count and under the same terms, then `Clc1cccc(Nc2cncc(-c3cncc(NCCCc4cccnc4)c3)n2)c1` [Cmd 72], with under 5.00; and `Clc1cccc(Nc2cncc(-c3cncc(NCCCn4cncn4)c3)n2)c1` [Cmd 76], with under 5.00.
Still for that read-out and setting: then `OCCCCNc1cncc(-c2cncc(Nc3cccc(Cl)c3)n2)c1` [Cmd 32], with under 4.00.
The same measure, in the same setting: then `OCCCNc1cncc(-c2cncc(Nc3cccc(Cl)c3)n2)c1` [Cmd 4], with 5.22; and `Clc1cccc(Nc2cncc(-c3cncc(NCCCc4ccncc4)c3)n2)c1` [Cmd 71], with under 5.00.
`Clc1cccc(Nc2cncc(-c3cncc(NCCCn4cccn4)c3)n2)c1` [Cmd 75]: the pIC50 is under 5.00.
Still for that read-out and setting: then `Clc1cccc(Nc2cncc(-c3cncc(NCCCN4CCCCC4)c3)n2)c1` [Cmd 73], with 5.49.
Turning to `CN(C)CCCNc1cncc(-c2cncc(Nc3cccc(Cl)c3)n2)c1` [Cmd 35], the pIC50 was about 5.00.
`CN(C)CCNc1cncc(-c2cncc(Nc3cccc(Cl)c3)n2)c1` [Cmd 33, N′-[5-[6-[(3-chlorophenyl)amino]pyrazinyl]-3-pyridinyl]-N^2,N^2-dimethyl-1,2-ethanediamine]: the pIC50 was about 5.00.
